# Source: patent US20230212571A1, “COMPOSITIONS AND METHODS FOR DELIVERING POLYNUCLEOTIDES” (NeOnc Technologies, Inc., priority 2020, published 2023)
# What was measured:
# BEC [1] = test: ELISA of control BEC supernatants; type: cell-based, human
# Text: Human surgical specimens were obtained following written informed consent from patients in accordance with Declaration of Helsinki guidelines and the Institutional Review Board (HS-04B053), at Keck School of Medicine, USC. AVM-BECs were isolated from brain tissues of patients who underwent microsurgical AVM resection. Control BECs were isolated from the structurally normal […] of patients who underwent temporal lobectomy for intractable epilepsy. Endothelial cell (EC) isolation and culture were described^5,9. (Stapleton C J, Armstrong D L, Zidovetzki R, Liu C Y, Giannotta S L, Hofman F M. Thrombospondin-1 modulates the angiogenic phenotype of human cerebral arteriovenous malformation endothelial cells. Neurosurgery. 2011; 68(5):1342-1353) (Ferreira R, Santos T, Amar A, et al. Argonaute-2 promotes miR-18a entry in human brain endothelial cells. J Am Heart Assoc. 2014; 3(3):e000968) ECs were only used between passages 3-5. Experiments were performed under shear flow conditions (12 dyn/cm^2) to reproduce arterial flow^6. (Ferreira R, Santos T, Amar A, et al. MicroRNA-18a improves human cerebral arteriovenous malformation endothelial cell function. Stroke. 2014; 45(1):293-297). For hypoxic experiments, cells were cultured in a Galaxy 48R (Eppendorf) incubator at 3% O2. MicroRNAs were co-administered with Ago-2 to increase the cellular uptake of miR-18a^9 (Ferreira R, Santos T, Amar A, et al. Argonaute-2 promotes miR-18a entry in human brain endothelial cells. J Am Heart Assoc. 2014; 3(3):e000968) (FIG. 9). Methods regarding cell treatments and transfections were included in Data.
# Small interfering RNA transfection was performed as previously described^5. Briefly, ECs were transfected with small interfering RNA (siRNA) against ID1 or PAI-1 (Thermo Fisher Scientific), or small interfering control (Santa Cruz Biotechnology) constructs using Lipofectamine RNAiMax (Thermo Fisher Scientific) per the manufacturer's instructions. Knockdown of ID1 or PAI-1 was confirmed by quantitative real-time polymerase chain reaction as described^6 (FIG. 19). The sequences of the forward and reverse primers for ID1 and PAI-1 were included in Table 2.
# Plasmid constructs pcDNA3-ALK2^WT (Addgene #80870) and pcDNA3-ALK2^Q207D (Addgene #80871) were a gift from Aristidis Moustakas^7. (Meyer B, Schaller C, Frenkel C, Ebeling B, Schramm J. Distributions of local oxygen saturation and its response to changes of mean arterial blood pressure in the cerebral cortex adjacent to arteriovenous malformations. Stroke. 1999; 30(12):2623-2630) 10^4 AVM-BEC were seeded 24 h before transfection. The plasmid vector containing the 3′ untranslated region (3′UTR) of human BMP4, pRP [Exp]-Puro-CMV>Luciferase:{hBMP4_3′UTR}, was constructed and packaged by VectorBuilder. The vector ID is VB200205-1078zdv, which can be used to retrieve detailed information about the vector on vectorbuilder.com. Transient transfections were performed with Lipofectamine RNAiMax (Thermo Fisher Scientific) according to the manufacturer's instructions. After 4 h, medium was replaced by fresh medium containing microRNA.
# MiR-18a (hsa-miR-18a-5p, 40 nM, Dharmacon) or a scramble microRNA (40 nM, Dharmacon) in nuclease-free water was added with argonaute 2 (Ago-2, 0.4 nM, Abcam) as the microRNA carrier and stabilizer^9. (Ferreira R, Santos T, Amar A, et al. Argonaute-2 promotes miR-18a entry in human brain endothelial cells. J Am Heart Assoc. 2014; 3(3):e000968). No transfection reagent was used with miR-18a or scramble microRNA treatments. Recombinant human TSP-1 (R&D Systems) stock solution was prepared in PBS and further diluted in culture medium to be used at a final concentration of 1000 ng/mL. Cells were treated during 24 h for mRNA and 48 h for protein expression studies. NEO100 (NeOnc Technologies) stock was prepared in DMSO and used immediately or stored at −20° C. […]
# BEC [2] = test: Invasion assay, Matrigel-coated Boyden chamber, control BEC; type: cell-based, human; details: P>0.9999
# Text: The chemoinvasion assay was described^14. (Marín-Ramos N I, Thein T Z, Cho H-Y, et al. NEO212 inhibits migration and invasion of glioma stem cells. Mol Cancer Ther. 2018; 17(3):625-637). Pictures were captured using an Eclipse 80i microscope (Nikon), and cells counted with ImageJ Software (NIH).
# [3] = control BEC supernatants, normoxia
substance,measurement,setting,value
hsa-miR-18a-5p (UAGGUGCAUCUAGUGCAGAUAG; chemistry not given here; listed as Homo sapiens) [small non-coding RNA molecule involved in post-transcriptional regulation of gene expression; Dharmacon],VEGF secretion (ELISA),"BEC [1]; BEC transfected with ALK2, P>0.9999",No significant changes
same,levels of secreted PAI-1,BEC [1]; [3],without affecting control BEC
same,levels of secreted VEGF,BEC [1]; [3],without affecting control BEC
same,levels of secreted VEGF,BEC [1]; control BEC transfected with siCTL,without affecting control BEC
same,invasiveness,BEC [2],without affecting control BEC
